Laboratory results: patent US7374890B2, “Methods for identifying compounds that modulate ΔTRα2 activity” (University of Massachusetts, priority 2000, dated 2008)

Assays:
[1] = tested on: Ca-dependent Mg-ATPase release of p29 vesicles from F-actin; assay: release of F-actin-bound p29 vesicles by Ca-dependent Mg-ATPase; type: biochemical, rat; details: 5 mM EGTA
Excerpt: To determine whether this is a direct interaction between the vesicle and F-actin or is mediated by other actin-bound proteins, e.g., myosin V, the release of p29 vesicle bound to F-actin by activating a Ca-dependent Mg-ATPase was investigated. Synaptic vesicle-bound myosin V is released from F-actin by activating the Ca-dependent MgATPase found in the actin binding head of myosin V (Prekeris et al, 1997, J. Cell Biol. 137: 1589-1601; Nascimento et al., 1996, J. Biol. Chem. 271:17561-17569). In this experiment, confluent monolayers of astrocytes were grown in serum-free media for 16 hours, then D2 activity was induced with bt2cAMP and hydrocortisone, and the p29 vesicle was affinity radiolabeled with BrAc[^125I]T4. Cell lysates containing approximately 50,000 cpm of BrAc[^125I]T4-labeled p29 were pretreated with 10 nM […] at 37° C., followed by an additional 20 minute incubation with 0.1 mM Ca^2+, 1 mM Mg^2+, 0.1 mM ATP, or 5 mM EGTA. Triton-insoluble (F-actin bound) pellets were prepared as described herein. […] Triton-insoluble (F-actin-bound) pellets were separated from the Triton-soluble (vesicle) fraction by microfuge centrifugation (14,000×g for five minutes) and the distribution of p29 was determined by y-counting, and by SDS-PAGE analysis.

T4 deiodinases = details: cited from earlier work
D2 activity = details: in astrocytes; cited from earlier work
transthretin = transthretin (Homo sapiens, UniProt P02766); details: cited from earlier work
deiodination = details: cited from earlier work
[2] = tested on: cerebellar granule neurons; assay: release of FM1-43-loaded synaptic vesicles from cerebellar granule neurons under continuous stimulus; type: cell-based, rat; details: 10 nM hormone; continuous stimulation by 50 mM KCl; vs no hormone controls; first order kinetics assumed
Method: Granule neurons were grown for 7 days and rendered hormone free by growth in serum-free medium as detailed above. Coverslips were then placed in a perfusion chamber, mounted on the stage of a laser scanning confocal microscope and perfused at 1 ml/min at 25° C. with perfusion buffer (119 mM NaCl, 2.5 mM KCl, 2 mM CaCl2, 2 mM MgCl2, 25 mM HEPES (pH 7.4), 30 mM glucose, and […] AP-5). The effects of different hormones on synaptic vesicle trafficking were then determined. […] Depolarizing KCl was then removed from the perfusion buffer and the cells were exposed to FM1-43 for an additional 30 seconds to insure complete loading of recycling synaptic vesicles. Loaded cells were then washed free of dye and the cells were perfused for ten minutes at rest.
Images of a single field of neuronal fibers were then taken immediately before adding a second depolarizing solution (perfusion buffer containing 50 mM KCl) and at one and two minutes after beginning the continuous stimulation by 50 mM KCl. Thirty to forty-five individual FM1-43 labeled nerve terminals were identified in the baseline images (taken prior to depolarization) and the change in fluorescence (DF) for each nerve terminal determined at the one and two minute time points. FIGS. 11A and 11B show the results of analysis of the hormone specificity of synaptic vesicle trafficking (FIG. 11A) and the influence of individual myo5a mutants (FIG. 11B) on synaptic vesicle transport in granule neurons.
To evaluate the role of myo5a in synaptic vesicle transport, three different myo5a constructs were introduced into the neurons by replication-deficient adenoviral vectors (Δmyo5a^tail(MyoV^tail), Δmyo5a^c-term(MyoV^1830)and ΔMyo5a^CC(MyoV^cc) see FIG. 5) as described above. […] Neurons were infected with purified Ad5-constructs (MOI=10) 48 hours prior to the synaptic vesicle trafficking study, and allowed to recover in hormone (T4) supplemented medium. […] This modest influence of the VBD mutant on synaptic vesicle retention is likely to be due to the loss of the kinesin-binding domain that limits its delivery to nerve terminals.

ΔTRα2 = target: T1, ΔTRα2 (Rattus norvegicus, UniProt P63059); assay: [125I]rT3 displacement from cell-free translated ΔTRα2; type: binding; details: cell-free translated polypeptide
T1 sequence (P63059 256-492): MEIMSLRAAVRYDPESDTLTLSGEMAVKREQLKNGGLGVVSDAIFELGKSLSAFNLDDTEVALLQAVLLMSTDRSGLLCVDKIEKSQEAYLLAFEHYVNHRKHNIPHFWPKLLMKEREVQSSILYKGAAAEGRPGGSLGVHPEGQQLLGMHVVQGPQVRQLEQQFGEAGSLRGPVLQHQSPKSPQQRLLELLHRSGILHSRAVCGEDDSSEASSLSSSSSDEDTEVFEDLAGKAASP
Excerpt: (§1) ΔTRα1 and ΔTRα2 polypeptides were synthesized by cell-free translation of appropriate segments of the rat ΔTRα1 and ΔTRα2 cDNA using the coupled transcription-translation kit from Promega® (TNT) according to the manufacturer's instructions.

astrocytes = assay: subcellular distribution of immunoreactive TRα2-derived proteins in cultured astrocytes; type: cell-based, rat; details: serum-free medium, treated 20 minutes, 0.1% bovine serum albumin carrier
Excerpt: The subcellular distribution of immunoreactive thyroid hormone receptor-derived proteins in primary brain cell cultures and in cultured astrocytes was examined. Primary brain cell cultures were fixed with 0.4% paraformaldehyde, permeabilized with Triton X-100®, and stained for TRα-derived proteins using specific antisera directed against the unique C-termini of TRα1 and TRα2 proteins, and visualized by staining with a secondary tagged antibody. Consistent with previous observations (Kolodny et al., 1985, Endocrinol. 117: 1848-1857), immunoreactive TRα1 proteins were found in the nuclei of astrocytes and neuronal cells. However, TRα2-derived proteins were not localized to the nucleus in either astrocytes or neurons, but appeared as donut shaped structures located throughout the astrocyte or as discreet punctate signals along neuronal fibers. This latter pattern is diagnostic for synapses in neuronal cultures (Wong et al., 1999, Neurosci. 89:221-233), and is consistent with the presence of ΔTRα2-derived protein in nerve terminals.
The subcellular distribution of immunoreactive TRα2-derived proteins in cultured astrocytes was influenced by the presence of either T4 or rT3. In these experiments astrocytes were grown in serum-free medium, treated for 20 minutes with either […] or rT3, and fixed, permeabilized, and stained as described above. […]

[3] = target: binding of p29^GFP vesicles to F-actin; assay: modified in vitro actin binding assay with p29^GFP-labeled vesicles; type: biochemical, rat; details: 0-100 nM, 20 minutes at 37° C.; read-out: EC50, increase in quantity of p29^GFP bound to F-actin
Method: To define the specific region(s) of the myosin V tail that interact with the p29 vesicle, a series of deletion mutations were created based on the dominant negative effect of exogenous myosin V tail on p29 vesicle binding. Competition analysis of the myosin V deletion mutations on T4-dependent binding of p29 vesicles to F-actin was performed using a modified in vitro assay in which a GFP-tagged p29 fusion protein (p29^GFP) replaced the radioaffinity labeled native p29 (Farwell et al., 1990, J. Biol. Chem. 265:18546-18553; Farwell et al., 1993, J. Biol. Chem. 268:5055-5062). This allowed direct evaluation of the binding of fluorescent vesicles to F-actin without affinity radiolabeling of the p29 and subsequent SDS-PAGE analysis.
Specific fluorescence at 510 nm (excitation, 488 nm) was then determined in the resuspended Triton-insoluble pellets.
To determine if the myosin V tail could be captured by the p29^GFP vesicle, an exogenous myosin V^tail was introduced into astrocytes constitutively expressing p29^GFP by infection with Ad5-ΔMyo V^tail virus particles and examined the effects of T4 on the binding of the myosin V^tail to immunopurified p29^GFP vesicles. Astrocytes expressing p29^GFP were grown in serum-free media and treated for 16 hours with 1 mM bt2cAMP and 100 nM hydrocortisone. A separate pool of astrocytes was treated in serum-free media supplemented with 10 μM retinoic acid. Cells were collected by scraping, and lysed by two freeze-thaw cycles. […] Triton-soluble (vesicle) and Triton-insoluble (F-actin) fractions were separated by microflige centrifugation. Triton pellets were resuspended in 300 μl of PBS and fluorescence at 510 nm (excitation 488 nm) determined and relative fluorescence was reported as arbitrary units. Cells were treated with 10 nM T4 for twenty minutes and a Triton-soluble supernatant was prepared. Vesicles containing the p29^GFP were immunoprecipitated by anti-GFP IgG (2 μg/ml) and protein in the immunoprecipitates were resolved by SDS-PAGE. Immunoblot analysis of vesicle-associated myosin V was performed using the anti-myosin V antibody directed against the C-terminus.
The quantity of each mutant protein synthesized was determined by [^35 S]-methionine incorporation. Astrocytes expressing p29^GFP were grown in serum-free media and treated for 16 hours with […] bt2cAMP and 100 nM hydrocortisone. p29^GFP V-lysate and F-lysate were prepared as described herein. 100 μg aliquots of p29^GFP V-lysate and F-lysate were pre-incubated, in triplicate, for 20 minutes at 37° C. in the presence of individual Δ myosin V mutant proteins (˜2-3 pmol polypeptide/50 μl mixture) were added to the actin-binding assay and pre-incubated for 20 minutes at 37° C. T4 (10 nM) was then added, the mixtures incubated for 20 minutes at 37° C., and F-actin bound, fluorescent p29^GFP vesicles were then isolated in the Triton-insoluble pellet.
V lysates prepared from astrocytes over-expressing p29^GFP were pre-incubated for 30 minutes at room temperature with antisera raised against ΔTRα2, ΔTRα1, the C-terminus of MyoV (encoded by MyoV^tail, FIG. 5), the coiled-coil region of MyoV (encoded by MyoV^coil-coil, FIG. 5) and GFP (green fluorescent protein). T4 (10 nM) and actin fiber-containing F-lysate was then added, the mixtures incubated at 37° C. for 20 minutes, and the Triton-insoluble fraction isolated by centrifugation.

ΔTRα1 = ΔTRα1 (Rattus norvegicus, UniProt P63059); assay: [125I]rT3 displacement from cell-free translated ΔTRα1; type: binding; details: cell-free translated polypeptide
Excerpt: as §1

[4] = target: T2, ΔTRα2 (T4 Inactivating Protein; TIP) (Rattus norvegicus, UniProt P63059); assay: rT3 binding displacement in nuclei-free extracts of cultured rat astrocytes
T2 construct: ΔTRα2 is encoded by exons 8-10 resulting in an approximately 25 kd protein
T2 sequence (P63059 whole entry, stated change not applied): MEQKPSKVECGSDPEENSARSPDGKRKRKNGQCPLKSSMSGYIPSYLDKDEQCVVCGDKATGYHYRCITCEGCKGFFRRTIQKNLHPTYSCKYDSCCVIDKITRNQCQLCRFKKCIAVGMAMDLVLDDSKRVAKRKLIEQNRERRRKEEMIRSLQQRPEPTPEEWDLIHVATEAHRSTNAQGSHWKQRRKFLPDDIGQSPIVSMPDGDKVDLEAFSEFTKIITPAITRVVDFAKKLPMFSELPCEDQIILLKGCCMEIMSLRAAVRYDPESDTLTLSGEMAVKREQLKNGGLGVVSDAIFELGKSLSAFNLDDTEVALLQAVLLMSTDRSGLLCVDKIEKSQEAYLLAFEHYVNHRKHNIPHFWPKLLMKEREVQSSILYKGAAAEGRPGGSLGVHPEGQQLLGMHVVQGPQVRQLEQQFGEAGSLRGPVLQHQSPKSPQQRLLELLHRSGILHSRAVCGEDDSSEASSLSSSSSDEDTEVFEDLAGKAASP
Method: The properties of thyroid hormone binding to non-nuclear components of the cell were examined using ΔTRα2 (T4 Inactivating Protein; TIP)-containing, nuclei-free extracts of cultured rat astrocytes. […] Both rT3 and T4 specifically displace rT3 with Kd's of approximately 0.3-0.5 nM.

With `O=C(O)CN(CCOCCOCCN(CC(=O)O)CC(=O)O)CC(=O)O` [EGTA] the “block of Ca2+-stimulated, Mg2ATPase-dependent release of p29 from F-actin” value [1] was “more than 50%”.

In the case of `Cc1c(-c2cc(Br)c(O)c(Br)c2)oc2ccc(O)cc2c1=O` [EMD21388], the “inhibition of T4 deiodinases” value (T4 deiodinases) is listed as “can inhibit”, the “quantity of D2 activity” value (D2 activity) is listed as “decreases the quantity of D2 activity” and the “block of the binding of T4 to transthretin” value (transthretin) is listed as “competitively block”.

For `O=C(CCc1ccc(O)cc1)c1c(O)cc(O)cc1O` [phloretin], the inhibition of deiodination (deiodination) is given as “potent inhibitor”.

With `N[C@@H](Cc1ccc(Oc2cc(I)c(O)c(I)c2)c(I)c1)C(=O)O` [rT3, 3, 3′, 5′-triiodothyronine] the “decrease of the rate of FM1-43 release” value [2] was 75%, the Kd (ΔTRα2) was 0.3 to 1 nM and the “subcellular distribution of TRα2-derived proteins” value (astrocytes) was “coalescence of the TRα2-derived proteins around the perinuclear space”. The EC50 [3] was about 0.5 nM, the Kd (ΔTRα1) was 0.3 to 1 nM and the Kd [4] was 0.3 to 0.5 nM.
